In publication PMC7241567 (Journal of Enzyme Inhibition and Medicinal Chemistry, 2020):
Entries after “also recorded” stand apart in the source; their conditions may differ.

Columns and labels:
Assay type in all cases: biochemical
FLT3 = molecular target: T1, FLT3 (Homo sapiens, UniProt P36888); experiment: Reaction Biology Kinase HotSpot radiometric kinase assay; settings: for IC50: FLT3 wild type, read-out: IC50 against FLT3
T1 construct: purchased Reaction Biology Corp. (Kinase HotSpot service)
T1 sequence (P36888 27-993): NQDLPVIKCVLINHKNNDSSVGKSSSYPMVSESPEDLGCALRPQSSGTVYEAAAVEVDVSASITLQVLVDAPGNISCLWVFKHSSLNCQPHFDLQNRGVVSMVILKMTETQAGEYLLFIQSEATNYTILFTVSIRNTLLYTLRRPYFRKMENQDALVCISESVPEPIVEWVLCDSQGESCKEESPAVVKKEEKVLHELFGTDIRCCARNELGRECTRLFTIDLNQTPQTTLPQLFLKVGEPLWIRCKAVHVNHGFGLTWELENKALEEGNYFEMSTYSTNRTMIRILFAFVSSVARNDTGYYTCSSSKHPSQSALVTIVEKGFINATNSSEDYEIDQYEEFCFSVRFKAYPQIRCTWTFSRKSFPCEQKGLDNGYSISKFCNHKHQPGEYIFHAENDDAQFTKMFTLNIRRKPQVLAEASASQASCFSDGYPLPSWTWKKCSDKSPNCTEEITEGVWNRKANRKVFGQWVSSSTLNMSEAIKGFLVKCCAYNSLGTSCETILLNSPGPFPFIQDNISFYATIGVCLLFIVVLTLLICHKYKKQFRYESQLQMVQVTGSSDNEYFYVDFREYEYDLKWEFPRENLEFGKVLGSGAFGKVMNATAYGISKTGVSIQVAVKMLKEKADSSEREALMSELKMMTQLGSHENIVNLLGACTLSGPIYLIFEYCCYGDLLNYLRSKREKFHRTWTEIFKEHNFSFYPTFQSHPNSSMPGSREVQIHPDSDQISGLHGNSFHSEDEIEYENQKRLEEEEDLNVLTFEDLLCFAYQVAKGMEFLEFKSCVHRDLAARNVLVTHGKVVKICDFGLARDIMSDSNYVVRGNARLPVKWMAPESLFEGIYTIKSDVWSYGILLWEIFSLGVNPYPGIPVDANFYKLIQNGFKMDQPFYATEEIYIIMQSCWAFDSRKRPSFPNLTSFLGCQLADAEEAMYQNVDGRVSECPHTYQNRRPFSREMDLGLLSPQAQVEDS

[1] = test system: other kinases including FMS and cKit; experiment: Kinase panel screening, overall selectivity; settings: 36 different kinases, single dose of 10 µM
Protocol: Next, we investigated kinase panel screening of 7d and 7b over 36 different kinases at a single dose of 10 µM (Figure 5). […] High selectivity over cKit might be an opportunity to avoid myelosuppression toxicity, which was reported from a dual FLT3/cKit inhibitor[19–22]. It is a valuable result to secure such a kinase selectivity profile considering the similarities of the same type III receptor tyrosine kinase (FMS, cKit and FLT3).
3. Evaluation of IC50 and Selected Kinase Profiling
We used Reaction Biology Corp. Kinase HotSpotSM service (www.reactionbiology.com) for IC50 determination of all compounds and kinase profile. Assay protocol: In a final reaction volume of 25 μL, Peptide substrate, [[…]], 5 µM, ATP 10 µM, FLT3(h) (5-10 […]
mU) is incubated with 25 mM Tris pH 7.5, 0.02 mM EGTA, 0.66 mg/mL myelin basic protein, 10 mM Mg Acetate and [γ-33P-ATP] (specific activity approx. 500 cpm/pmol, concentration as required). The reaction is initiated by the addition of the Mg-ATP mix. After incubation for 40 minutes at room temperature, the reaction is stopped by the addition of 5 μL of a 3% phosphoric acid solution. 10 μL of the reaction is then spotted onto a P30 filtermat and washed three times for 5 minutes in 75 mM phosphoric acid and once in methanol prior to drying and […]

RIPK3 = molecular target: T2, RIPK3 (Homo sapiens, UniProt Q9Y572); experiment: Reaction Biology Kinase HotSpot radiometric kinase assay; settings: read-out: GW5074 IC50, control compound, footnote a: data for GW5074
T2 construct: purchased Reaction Biology Corp. (Kinase HotSpot service)
T2 sequence (Q9Y572 whole entry): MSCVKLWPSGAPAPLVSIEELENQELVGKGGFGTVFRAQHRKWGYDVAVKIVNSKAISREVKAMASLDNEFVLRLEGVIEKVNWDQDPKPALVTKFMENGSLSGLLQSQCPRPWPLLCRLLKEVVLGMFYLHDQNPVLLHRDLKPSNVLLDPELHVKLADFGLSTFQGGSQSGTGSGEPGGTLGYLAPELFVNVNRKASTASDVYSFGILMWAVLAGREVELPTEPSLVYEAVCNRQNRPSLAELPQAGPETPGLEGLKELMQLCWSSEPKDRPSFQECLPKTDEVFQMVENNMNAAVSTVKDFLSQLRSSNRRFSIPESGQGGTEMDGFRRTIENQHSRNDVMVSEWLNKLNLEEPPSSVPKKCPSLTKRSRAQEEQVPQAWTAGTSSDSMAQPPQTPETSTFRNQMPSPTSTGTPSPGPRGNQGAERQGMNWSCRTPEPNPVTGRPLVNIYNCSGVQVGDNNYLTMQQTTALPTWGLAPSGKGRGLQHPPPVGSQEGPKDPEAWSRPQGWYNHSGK

ERK1 = molecular target: T3, ERK1 (Homo sapiens, UniProt P27361); experiment: as above; settings: control compound, footnote b: data for SCH772984
T3 construct: purchased Reaction Biology Corp. (Kinase HotSpot service)
T3 sequence (P27361 whole entry): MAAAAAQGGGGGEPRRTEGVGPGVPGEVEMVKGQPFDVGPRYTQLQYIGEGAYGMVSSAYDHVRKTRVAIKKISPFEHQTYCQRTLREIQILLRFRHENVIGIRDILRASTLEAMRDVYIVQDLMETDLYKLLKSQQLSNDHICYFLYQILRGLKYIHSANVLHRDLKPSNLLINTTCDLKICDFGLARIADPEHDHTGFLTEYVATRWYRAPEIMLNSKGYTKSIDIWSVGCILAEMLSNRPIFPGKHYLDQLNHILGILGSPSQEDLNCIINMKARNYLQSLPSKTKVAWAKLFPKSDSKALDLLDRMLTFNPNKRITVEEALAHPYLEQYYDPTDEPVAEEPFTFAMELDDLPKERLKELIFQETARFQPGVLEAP

## Cc1oncc1C(=O)Nc1ccc2cnc(-c3cc(N4CCOCC4)cc(C(F)(F)F)c3)nc2c1 [Compound 7b]
FLT3
  inhibitory activity towards FLT3 (in words): maintained the activity; also recorded: maintained inhibitory activity
  IC50: 3.98 µM
[1]
  activity on other kinases in panel (in words): almost no activity

## Cc1cn(-c2cc(-c3ncc4ccc(NC(=O)c5cnoc5C)cc4n3)cc(C(F)(F)F)c2)cn1 [Compound 7c]
FLT3
  inhibitory activity towards FLT3 (in words): maintained the activity; also recorded: maintained inhibitory activity
  IC50: 1.58 µM

## CCN1CCN(Cc2cc(-c3ncc4ccc(NC(=O)c5cnoc5C)cc4n3)cc(C(F)(F)F)c2)CC1 [Compound 7e]
FLT3
  inhibitory activity towards FLT3 (in words): maintained the activity; also recorded: maintained inhibitory activity
FLT3; compared with 7d
  decrease of activity towards FLT3 relative to 7d: about 10 fold

## Cc1oncc1C(=O)Nc1ccc2cnc(-c3cnn(-c4ccccc4)c3C(F)(F)F)nc2c1 [Compound 7h]
FLT3
  inhibitory activity towards FLT3 (in words): loss of activity

## COc1ccc(/C=C/c2ncc3ccc(NC(=O)c4cnoc4C)cc3n2)cc1 [Compound 7j]
FLT3
  inhibitory activity towards FLT3 (in words): maintained inhibitory activity
  IC50: 4.7 µM

## Cc1oncc1C(=O)Nc1ccc2cnc(-c3cc(C(C)(C)C)on3)nc2c1 [Compound 7l]
FLT3
  inhibitory activity towards FLT3 (in words): did not show inhibitory activity towards FLT3 or were very weak

## Cc1oncc1C(=O)Nc1ccc2cnc(-c3ccc4[nH]ncc4c3)nc2c1 [Compound 7m]
FLT3
  inhibitory activity towards FLT3 (in words): maintained inhibitory activity
  IC50: 0.79 µM

## Cc1oncc1C(=O)Nc1ccc2cnc(-c3cc(OC4CCN(C)CC4)cc(C(F)(F)F)c3)nc2c1 [Compound 7n]
FLT3
  inhibitory activity towards FLT3 (in words): maintained the activity; also recorded: maintained inhibitory activity
  IC50: 3.59 µM

## CC(=O)N1CCC(c2ncc3ccc(NC(=O)c4cnoc4C)cc3n2)CC1 [Compound 7o]
FLT3
  inhibitory activity towards FLT3 (in words): did not show inhibitory activity towards FLT3 or were very weak

## Cc1oncc1C(=O)Nc1ccc2cnc(-c3ccncc3)nc2c1 [Compound 7p]
FLT3
  inhibitory activity towards FLT3 (in words): did not show inhibitory activity towards FLT3 or were very weak

## Cc1oncc1C(=O)Nc1ccc2cnc(-c3ccccn3)nc2c1 [Compound 7q]
FLT3
  inhibitory activity towards FLT3 (in words): did not show inhibitory activity towards FLT3 or were very weak

## O=C1Nc2ccc(I)cc2/C1=C/c1cc(Br)c(O)c(Br)c1 [GW5074, reference compound]
RIPK3
  IC50: 1.65 µM

## O=C(Nc1ccc2[nH]nc(-c3ccncc3)c2c1)[C@@H]1CCN(CC(=O)N2CCN(c3ccc(-c4ncccn4)cc3)CC2)C1 [SCH772984, reference compound]
ERK1
  IC50: 0.00447 µM
